According to patent publication US12428681B2, “Markers of totipotency and methods of use” (AGENCY FOR SCIENCE, TECHNOLOGY AND RESEARCH, priority 2017, dated 2025):

Tests used:
Type in all cases: cell-based, mouse
NELFA reporter mESCs [1] = test: RNA-seq transcriptomic profiling of unsorted 2-DG-treated NELFA reporter mESCs; details: adjusted p-value≤0.01 and fold-change≥2
Method: Unless otherwise stated, all mESC lines were cultured in serum-containing ESC medium containing Knockout DMEM, 15% FCS, L-Glutamine, non-essential amino acids, penicillin/streptomycin, 2-mercaptoethanol and supplemented with LIF, 1 μM PD0325901 and 3 µM CHIR99021 (2i′). For serum-free ‘naïve’ culture condition, mESCs were grown in N2B27 medium supplemented with LIF and 2i. For 2-DG experiments, ESCs were grown in serum-containing ESC medium with 4 mM 2-DG (Sigma; D8375) for up to 4 days. For MYC inhibitor treatment, ESCs were grown in serum-containing ESC medium with […] MYC inhibitor, 10058-F4 (Abcam), for 3 days. […]
Single- and Paired-end raw sequencing reads were trimmed with Trim Galore (v0.4.2_dev; www.bioinformatics.babraham.ac.uk/projects/trim_galore/) with parameters: --trim-n (single-end, NELFA reporter mESCs) or -paired (paired-end, Doxinducible NELFA-EGFP and 2DG-treated NELFA reporter mESCs). Cleaned reads were then mapped to the mouse GRCm38 reference genome, guided by the vM9 gene model from the GENCODE project using the RSEM pipeline (v1.1.11). […] Reads mapping and quantification of individual repetitive element expression were carried out by using the RepEnrich pipeline, which takes a two-step approach. Briefly, reads were mapped to the mouse genome (mm10) by Bowtie (v1.1.2), and separated into multiple-mapped and uniquely mapped reads. […]

[2] = system: NELFA-Strep-HA-P2A-EGFP mESCs; test: Flow cytometry of NELFA^high subpopulation in NELFA reporter mESCs
Method: (§1) Unless otherwise stated, all mESC lines were cultured in serum-containing ESC medium containing Knockout DMEM, 15% FCS, L-Glutamine, non-essential amino acids, penicillin/streptomycin, 2-mercaptoethanol and supplemented with LIF, 1 μM PD0325901 and 3 µM CHIR99021 (2i′). For serum-free ‘naïve’ culture condition, mESCs were grown in N2B27 medium supplemented with LIF and 2i. For 2-DG experiments, ESCs were grown in serum-containing ESC medium with 4 mM 2-DG (Sigma; D8375) for up to 4 days. For MYC inhibitor treatment, ESCs were grown in serum-containing ESC medium with […] MYC inhibitor, 10058-F4 (Abcam), for 3 days.
Mouse ES cells are grown in standard culture medium containing 4 mM of 2-DG inhibitor for 4 days, at 37° C. with 5% CO2. Culture medium containing 2-DG is changed every day during the induction. […] In a second system, where NELFA is under the control of a Dox inducible promoter, the expression is induced by culturing the ES cells with culture medium containing 0.4 μg/mL of Doxycycline for 16 hours at 37° C. with 5% CO2.
For NELFA-StrepHA-P2A-EGFP reporter ESC line, a donor vector harboring a Strep-HA-P2A-EGFP cassette flanked by NELFA left and right homology arms (826 bp and 924 bp respectively) was co-transfected with the CRISPR-Cas9 sgRNA cloning vector, pX458, containing the Nelfa sgRNA sequence ([…])(SEQ ID NO: 1). Positive transfectants were GFP-sorted and targeted single clones validated by genotyping.
FACSAria Cell Sorter (BD Biosciences) was used to quantify the proportion of EGFPpositive and EGFP-negative cells from the reporter mESC lines. The Moflow sorter was used to sort EGFP-positive and EGFP-negative cells for RNA-seq and NoME-seq studies.

mESCs = test: RT-qPCR of 2C-relevant genes in mESCs; details: 2-DG stimulation alone
Method: Unless otherwise stated, all mESC lines were cultured in serum-containing ESC medium containing Knockout DMEM, 15% FCS, L-Glutamine, non-essential amino acids, penicillin/streptomycin, 2-mercaptoethanol and supplemented with LIF, 1 μM PD0325901 and 3 µM CHIR99021 (2i′). For serum-free ‘naïve’ culture condition, mESCs were grown in N2B27 medium supplemented with LIF and 2i. For 2-DG experiments, ESCs were grown in serum-containing ESC medium with 4 mM 2-DG (Sigma; D8375) for up to 4 days. For MYC inhibitor treatment, ESCs were grown in serum-containing ESC medium with […] MYC inhibitor, 10058-F4 (Abcam), for 3 days. siRNAs were purchased from GE Dharmacon and Qiagen and transfected into mESCs using Lipofectamine RNAiMAX according to manufacturer's instructions. Both forward and reverse transfections were carried out. The final concentration of siRNA used was 40 nM per transfection and the effect of knockdown analyzed at 72 h. 0.5-1 μg of total RNA was used as input for cDNA preparation with the SensiFAST cDNA synthesis kit (Bioline; 65054). Reverse transcription was carried out with standard cycling condition as per manufacturer's instructions. […] Relative gene expression fold change was calculated using the delta delta CT method and statistical significance was assessed using a student's T-test.

NELFA reporter mESCs [3] = test: Immunofluorescence for 2C-like markers and H1-mCherry in NELFA reporter mESCs
Method: as §1
For generation of histone H1-mCherry stable mESCs, mouse H1e-mCherry fusion DNA sequence was ordered as a Gblock from IDT, amplified and inserted into the expression plasmid, pCAG-IRES-hygromycin. The pCAG-H1-mCherry-IRES-hygromycin plasmid was linearized with FspI and transfected into both NELFA-StrepHA-P2A-EGFP reporter mESCs and Dox-inducible pTRE-NELFA-StrepHA mESCs. Transfected cells were selected with hygromycin B (150 μg/ml) for 4 days before single colony sub-cloning.
Briefly mESCs were grown on gelatin-coated imaging dishes, fixed in 4% PFA for 10 min at room temperature, permeabilized and blocked in 0.1% TRITON™ X-100/1% BSA for 30 min. Cells were incubated in primary antibodies overnight at 4° C. followed by three washes in blocking buffer. […]

| Structure (SMILES) | number of genes upregulated after 2-DG treatment (NELFA reporter mESCs [1]) | increase in the NELFA^high subpopulation following 2-DG treatment ([2]; NELFA reporter mESCs, conventional culture conditions, 4 mM 2-DG, 4 days) | change in Nelfa^high ESC subpopulation (in words) ([2]; addition of 2-DG to Nelfa reporter ESCs) | induction of Gata3 by RT-qPCR (mESCs) | expression of MERVL family of retrotransposons and Zscan4 by immunofluorescence (NELFA reporter mESCs [3]; 2-DG-treated NELFA-positive mESCs) | H1 localization on heterochromatin in NELFA^high mESCs (NELFA reporter mESCs [3]; NELFA-EGFP reporter mESCs stably expressing H1-mCherry, following 2-DG treatment) | change in NELFA^high population (in words) ([2]; NELFA reporter mESCs, 64 µM MYC inhibitor 10058-F4, 3 days) |
| --- | --- | --- | --- | --- | --- | --- | --- |
| O=CC[C@@H](O)[C@H](O)[C@H](O)CO [2-DG, 2-deoxy-D-glucose] | 175 genes | up to 8 fold | prominent increase | not observed | upregulation | clear displacement | – |
| CCc1ccc(/C=C2/SC(=S)NC2=O)cc1 [10058-F4] | – | – | – | – | – | – | no increase |
